Experimental data: patent US11603355B2, “Charged ion channel blockers and methods for use” (Nocion Therapeutics, Inc., priority 2019, dated 2023)

Legend:
[1] = molecular target: T1, NaV1.7 (Homo sapiens, UniProt Q15858); test: Manual patch clamp, internal block of NaV1.7 current; format: cell-based; conditions: compound in internal solution, HEK293 cells, read-out: Nav1.7 Intracellular Inhibition; for inhibition at 3 µM: % inhibition at 3 μM test concentration; for inhibition at 10 µM: % inhibition at 10 μM test concentration
T1 construct: expressed in transfected cells; host or cells: HEK293 (tetracycline-inducible)
T1 sequence (Q15858 whole entry): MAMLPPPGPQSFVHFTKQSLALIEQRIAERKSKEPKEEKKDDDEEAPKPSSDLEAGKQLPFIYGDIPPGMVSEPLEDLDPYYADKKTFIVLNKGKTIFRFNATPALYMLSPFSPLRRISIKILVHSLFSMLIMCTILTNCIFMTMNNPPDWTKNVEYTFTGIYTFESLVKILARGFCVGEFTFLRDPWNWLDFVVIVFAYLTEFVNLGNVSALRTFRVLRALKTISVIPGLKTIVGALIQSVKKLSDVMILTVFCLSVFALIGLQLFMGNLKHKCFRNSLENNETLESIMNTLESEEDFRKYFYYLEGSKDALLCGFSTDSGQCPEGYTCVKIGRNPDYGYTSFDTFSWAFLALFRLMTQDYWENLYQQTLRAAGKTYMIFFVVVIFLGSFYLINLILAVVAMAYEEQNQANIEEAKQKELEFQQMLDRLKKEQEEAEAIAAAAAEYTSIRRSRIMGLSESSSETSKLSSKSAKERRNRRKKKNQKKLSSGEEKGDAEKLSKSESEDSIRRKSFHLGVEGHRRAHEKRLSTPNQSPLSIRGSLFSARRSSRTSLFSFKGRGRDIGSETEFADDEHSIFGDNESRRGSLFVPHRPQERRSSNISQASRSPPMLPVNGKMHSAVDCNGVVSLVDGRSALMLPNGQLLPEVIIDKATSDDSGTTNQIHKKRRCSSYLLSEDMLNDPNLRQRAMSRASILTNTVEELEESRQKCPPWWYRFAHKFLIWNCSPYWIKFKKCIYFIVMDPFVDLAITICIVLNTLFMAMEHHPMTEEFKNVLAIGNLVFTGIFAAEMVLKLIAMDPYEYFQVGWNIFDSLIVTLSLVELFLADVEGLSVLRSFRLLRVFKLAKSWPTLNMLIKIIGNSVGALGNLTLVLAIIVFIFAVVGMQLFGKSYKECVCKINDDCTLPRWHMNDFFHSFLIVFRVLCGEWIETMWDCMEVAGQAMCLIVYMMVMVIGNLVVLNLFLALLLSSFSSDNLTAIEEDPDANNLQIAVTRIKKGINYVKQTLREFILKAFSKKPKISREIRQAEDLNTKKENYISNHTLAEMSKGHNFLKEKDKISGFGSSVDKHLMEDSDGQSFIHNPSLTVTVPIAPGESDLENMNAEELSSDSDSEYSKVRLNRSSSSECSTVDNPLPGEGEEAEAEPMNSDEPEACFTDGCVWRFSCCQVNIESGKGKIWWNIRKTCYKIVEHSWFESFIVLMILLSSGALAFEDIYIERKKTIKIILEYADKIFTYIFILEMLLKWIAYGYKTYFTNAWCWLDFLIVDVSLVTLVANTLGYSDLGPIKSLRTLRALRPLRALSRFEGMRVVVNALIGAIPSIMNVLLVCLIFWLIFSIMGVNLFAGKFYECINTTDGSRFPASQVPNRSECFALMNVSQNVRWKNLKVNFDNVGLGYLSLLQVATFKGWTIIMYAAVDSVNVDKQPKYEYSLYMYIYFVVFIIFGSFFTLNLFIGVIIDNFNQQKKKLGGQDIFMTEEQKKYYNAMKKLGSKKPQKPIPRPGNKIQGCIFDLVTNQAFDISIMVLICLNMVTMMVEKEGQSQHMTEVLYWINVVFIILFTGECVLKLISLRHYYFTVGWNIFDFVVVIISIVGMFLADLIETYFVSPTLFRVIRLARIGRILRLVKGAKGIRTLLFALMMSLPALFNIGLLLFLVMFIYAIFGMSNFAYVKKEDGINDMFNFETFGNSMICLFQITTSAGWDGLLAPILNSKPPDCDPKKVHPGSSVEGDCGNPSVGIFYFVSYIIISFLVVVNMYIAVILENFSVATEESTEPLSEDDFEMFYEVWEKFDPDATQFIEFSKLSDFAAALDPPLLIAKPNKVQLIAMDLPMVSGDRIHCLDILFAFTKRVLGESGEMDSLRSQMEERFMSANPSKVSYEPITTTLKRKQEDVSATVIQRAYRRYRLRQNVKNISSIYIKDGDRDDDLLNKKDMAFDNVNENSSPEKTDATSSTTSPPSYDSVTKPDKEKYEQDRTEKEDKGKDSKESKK
Description: (§1) Representative compounds of the invention were synthesized according to the described methods and tested for the ability to inhibit voltage-gated sodium channels.
(§2) NaV1.7 was expressed in HEK293 cells upon induction with tetracycline. Cells were cultured in DMEM containing 10% dialyzed Fetal Bovine Serum (VWR, Radnor, Pa.), 1% Glutamax (VWR, Radnor, Pa.), 1% Penicillin-Streptomycin (VWR, Radnor, Pa.), 100 mg/L Hygromycin (Thermo Fisher Scientific, Waltham, Mass. and 5 mg/L Blasticidin (Alfa Aesar, Haverhill, Mass.). Cells were grown and maintained at 37° C. in a humidified environment containing 10% CO2 in air. Cells were detached from the culture flask for passage and harvested using 0.05% Trypsin-EDTA (Thermo Fisher Scientific, Waltham, Mass.). To induce NaV1.7, cells were induced with tetracycline (0.1-1 μg/mL, IBI Scientific, Peosta, Iowa) the day before recording and plated onto 24-well plates. Cells were washed with DPBS (VWR, Radnor, Pa.), trypsinized and then triturated five times in 10 mL of growth media to break apart cell aggregates. For one 24-well plate, 2 mL of cell suspension was mixed with 23 mL of fresh growth media and 0.1-1 μg/mL tetracycline added. 1 ml of mixed media with cells was then added to each well of a 24-well plate, with a 12 mm coverslip already placed in the bottom of the well. Cells were then incubated in 37° C. and 10% CO2 overnight.
(§3) The intracellular solution contained the following (in mM) CsCl 135, NaCl 10, EGTA 10, HEPES 10, MgCl2 2, adjusted to pH 7.2 with CsOH. The external solution was a normal Ringer solution containing (in mM) NaCl 155, HEPES 10, glucose 10, KCl 3.5, CaCl2 1.5, MgCl2 1 adjusted to pH 7.4 with NaOH. CsCl is from Alfa Aesar, Haverhill, Mass. All other chemicals are from Sigma-Aldrich, St. Louis, Mo. In order to test the degree of internal block by test compounds the compounds were dissolved in internal solution at the indicated test concentration. […] In order to test the degree of external block by test compounds the compounds were dissolved in external solution at the indicated test concentration.
(§4) 18-24 hours after cells were induced with tetracycline, coverslips were placed into a chamber filled with Normal Ringer solution at room temperature and the chamber placed on a microscope. Pipettes were pulled from borosilicate glass on a P97 puller (Sutter Instrument, Novato, Calif.) and polished with a MF-830 Microforge (Narishige International USA, Inc., Amityville, N.Y.) to have a resistance of 1.5-2.5 MΩ when filled with CsCl internal solution at room temperature. Healthy cells (those that are round and translucent with no visible blemishes) were chosen for seal formation. A seal was formed between the pipette and the cell, and a brief pulse of suction was used to “break in” and establish the whole-cell configuration. The membrane potential was held at −100 mV before the voltage protocol began. Only cells with series resistance between 1.5-5 MΩ were retained for analysis. The voltage protocol was as follows: Cells were held at −100 mV for 12 ms followed by a hyperpolarizing step to −105 mV for 12 ms to monitor the leak. Cells were then stepped back to −100 mV for 40 ms. Cells were then depolarized to −20 mV for 10 ms and then returned to −100 mV for 26 ms.
(§5) Once the recording was started, the voltage protocol was run at 30 second intervals for 5 minutes to get a stable baseline. This was followed by four 30-second periods of 5 Hz stimulation of the same voltage protocol separated by 1 minute of rest which was then followed by 0.33 Hz stimulation after the last train. Currents were recorded using PatchMaster software with Heka EPC10 (HEKA Electronics, Lambrecht, Germany). Only cells with inward current amplitudes at −20 mV between 400 pA and 4 nA were accepted. In addition, cells having leak currents greater than 10% of their current amplitudes were discarded. […]

[2] = molecular target: T1, NaV1.7; test: Manual patch clamp, external block of NaV1.7 current; format: cell-based; conditions: % inhibition at 10 μM test concentration, compound in external solution, HEK293 cells, read-out: Nav1.7 Extracellular Inhibition
Description: as §1, §2, §3, §4
as §5, with “This is” for “This was”, “by” for “by four 30-second periods of”, “protocol run until the end” for “protocol separated by 1 minute”, “of experiment. […] The test compound is added for 5 minutes before washing out with normal Ringer's solution.” for “of rest which was then followed by 0.33 Hz stimulation after the last train.”

[3] = PAMPA membrane permeability assay; format: in vitro ADME; conditions: permeability coefficient, pH 7.4 buffer, GIT lipid, 4 hours incubation
Summary of the method: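 Passive diffusion across a GIT-lipid-painted artificial membrane at pH 7.4, with a 50 uM donor stock diluted from DMSO and a 4 h incubation. UV spectra of the donor, acceptor and reference plates were read, and the permeability coefficient was calculated from the AUCs, in 10^−6 cm/s.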

[4] = molecular target: T1, NaV1.7; test: Automated patch clamp (Qube 384), internal block of NaV1.7; format: cell-based; conditions: IC50, compound in internal solution, HEK293 cells, read-out: Nav1.7 Intracellular Inhibition
Description: NaV1.7 was expressed in HEK293 cells upon induction with tetracycline. Cells were cultured in DMEM containing 10% dialyzed Fetal Bovine Serum (VWR, Radnor, Pa.), 1% Glutamax (VWR, Radnor, Pa.), 1% Penicillin-Streptomycin (VWR, Radnor, Pa.), 100 mg/L Hygromycin (Thermo Fisher Scientific, Waltham, Mass. and 5 mg/L Blasticidin (Alfa Aesar, Haverhill, Mass.). Cells were grown and maintained at 37° C. in a humidified environment containing 10% CO2 in air. Cells were detached from the culture flask for passage and harvested using 0.05% Trypsin-EDTA (Thermo Fisher Scientific, Waltham, Mass.). To induce NaV1.7, cells were induced with tetracycline (0.1-1 μg/mL, IBI Scientific, Peosta, Iowa) the day before recording.
Before experiments, cells were washed with DPBS (VWR, Radnor, Pa.), digested with Detachin (VWR Radnor, Pa.) and then triturated 10 times in CHO Serum-Free Media (VWR Radnor, Pa.) to resuspend the cells and to break apart cell aggregates. Cells were counted and the final concentration was set at 2-5 million cells per mL.
The intracellular solution contained the following: 140 mM CsF, 1 mM/5 mM EGTA/CsOH, 10 mM HEPES, 10 mM NaCl, adjusted to pH 7.3 with CsOH, and osmolality to 320 with OSM solution. The external solution contained the following: 145 mM NaCl, 4 mM KCl, 1 mM MgCl2, 2 mM CaCl2), 10 mM HEPES, 10 mM Glucose, adjusted to pH 7.4 with CsOH and osmolality to 305 with OSM solution. The OSM solution was a normal Ringer solution containing (in mM) NaCl 155, HEPES 10, sucrose, KCl 3.5, CaCl2) 1.5, MgCl2 1 adjusted to pH 7.4 with NaOH. All chemicals are from Sigma-Aldrich, St. Louis, Mo. In order to test the degree of internal block by test compounds, the compounds were dissolved in internal solution at the indicated test concentration. […] In order to test the degree of external block by test compounds the compounds were dissolved in external solution at the indicated test concentration.
Automated Patch Clamps were performed on Qube 384 (Sophion Bioscience, Woburn Mass.) with multihole Qchips at a temperature setting of 22 degrees. The whole cells configuration was formed with default Qube seal and break-in parameter. The membrane potential was held at −100 mV before the voltage protocol began. Two voltage protocols were followed.
Step 1: Cells were held at −100 mV with a depolarized pulse to −20 mV for 10 ms, the interval was set at 5 s. Currents were corrected by default leak subtraction from every pulse. The duration was set at 5 mins.
Step 2: Cells were held at −100 mV with a depolarized pulse to −20 mV for 10 ms. The frequency was 5 Hz. Currents were corrected by leak subtraction calculated before step 2. The duration was set at 4 mins.
After Step 2, the Qchip was removed from the recording chamber. The internal solution was changed with solutions containing test compounds. Qchips were held at −100 mV without pulsing after being replaced in the recording chamber. The total solution switching time was 8 minutes. After the internal solution exchange, Cells were recorded and step 2 for repeated for 10 minutes.
Data analysis was performed by Sophion Analyzer. Cells were filtered with minimum 50 MOhm seal resistance and minimum 5 nA starting current. The rundown of the currents was corrected with control cells (Non-Drug). The remaining was calculated by averaging last 3 points in the end of experiments. The base line was calculated as the average of last 3 points of Step 2.
IC50 curves were plotted with DR-plots/Hill function (a dose-response plot with a Hill fit).
Representative examples of the invention were tested for intracellular inhibition of NaV 1.7 in the automated patch clamp assay. Activity Range is reported as IC50: “++++” (<0.3 μM), “+++” (0.3-1 μM), “++” (1-3 μM) or “+” (3-10 μM).

| Structure (SMILES) | inhibition at 3 µM [1] | inhibition at 10 µM [1] | inhibition at 10 µM [2] | PAMPA (10^−6 cm/s) [3] | IC50 [4] |
| --- | --- | --- | --- | --- | --- |
| Cc1cccc(C)c1NC(=O)C[N+]1(Cc2ccccc2)CCCCCC1.[Br-] [Compound 3A, 1-benzyl-1-(2-((2,6-dimethylphenyl)amino)-2-oxoethyl) azepan-1-ium bromide] | > 90% | > 95% | 40 to 70% | + (“+” (<0.1 10^−6 cm/s)) |  |
| Cc1cccc(C)c1NC(=O)C[N+]1(Cc2ccccc2)CCCCC1 [Compound 4A, 1-benzyl-1-(2-((2,6-dimethylphenyl)amino)-2-oxoethyl)piperidin-1-ium bromide] | 70 to 90% | 70 to 95% | < 40% |  |  |

Second part, the molecule after the results:

| inhibition at 3 µM [1] | inhibition at 10 µM [1] | inhibition at 10 µM [2] | PAMPA (10^−6 cm/s) [3] | IC50 [4] | Structure (SMILES) |
| --- | --- | --- | --- | --- | --- |
| 70 to 90% | 70 to 95% | < 40% | + (“+” (<0.1 10^−6 cm/s)) |  | CCC(C(=O)Nc1c(C)cccc1C)[N+]1(Cc2ccccc2)CCCCC1.[Br-] (stereo not drawn) [Compound 6A, 1-benzyl-1-(1-((2,6-dimethylphenyl)amino)-1-oxobutan-2-yl)piperidin-1-ium bromide] |
| > 90% |  | 40 to 70% |  | 300 to 1000 nM | CCc1cccc(C)c1NC(=O)C[N+]1(Cc2ccccc2)CCCCCC1 [Compound 70A] |
| 70 to 90% | > 95% | < 40% | + (“+” (<0.1 10^−6 cm/s)) |  | CCC(C(=O)Nc1c(C)cccc1C)[N+]1(Cc2ccccc2F)CCCCC1 (stereo not drawn) [Compound 9A] |
